In US20240101548A1, “HYDROXAMATE COMPOUND, PREPARATION METHOD THEREFOR AND APPLICATION THEREOF” (SHENZHEN CHIPSCREEN BIOSCIENCES CO., LTD., priority 2020, published 2024):
Where two headings read alike, the source gives them in different places.

Columns and labels:
[1] = system: EPO-induced JAK2 signal pathway; test: EPO-induced proliferation of UT-7 cells (JAK2 signal); type: cell-based, human; settings: Homo sapiens, UT7; UT-7 cell proliferation, EPO 10 ng/mL, 72 hours; read-out: Inhibition activity IC50 on EPO-induced JAK2 signal pathway
Outline: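 […] was derived from inhibition rates across doses, scaled between wells lacking compound and cytokine (0) and EPO without compound (100), using alamarBlue fluorescence at Ex530/Em590. Compound (final 0-10000 nM) and 10 ng/mL EPO were given to UT-7 cells at 15000 per well for 72 h at 37° C.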

[2] = In-vivo pharmacokinetic test in mice; settings: mouse, po; BALB/c female mice, gavage 10 mg/kg, plasma
Experimental: LC-MS/MS method is used to determine the drug concentration in the plasma of mice at different times after intragastric administration of the compound of the example. Relevant pharmacokinetic parameters are calculated to study the pharmacokinetic behavior of the compound of the present invention in mice, thereby evaluating the pharmacokinetic characteristics thereof.
Test animal was healthy adult BALB/c female mouse (provided by Chengdu Yaokang Biotechnology Co., Ltd.);
Compound administration and sample collection: compound was administered to BALB/c female mice by gavage (10 mg/kg). At 0.25, 0.5, 1, 2, 4, 6, 8, and 24 hours after administration, 60 μL of whole blood of the mouse fundus venous plexus were collected and centrifuged at 4000 rpm for 10 min to provide plasma.
Sample analysis: 10 μL of mouse plasma samples were respectively added with 290 μL of acetonitrile solution containing internal standard to precipitate proteins. After swirling for 10 min and centrifuging at 4000 rpm for 10 min, 200 μL of supernatant was added to 96-well plate, and analyzed by LC-MS/MS at an injection volume of 1 μL.

[3] = system: IL-10-induced JAK1/TYK2 signal pathway; test: IL-10-induced JAK1/TYK2 signal pathway STAT3-Luc reporter gene assay in U2OS cells; type: cell-based, human; settings: Homo sapiens, read-out: Half inhibition dose (IC50) on IL-10-induced JAK1/TYK2 signal pathway
Outline: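 Luciferase read-out (560 nm) corrected by GFP signal (Ex485/Em520) gives IL-10 pathway activity, and IC50 is derived from inhibition rates. Cells were U2OS transfected with IL-10R1 plus STAT3-Luc reporter, pretreated 6 h with 0.1–300 nM compound, then stimulated 24 h with IL-10 at 10 ng/mL.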

[4] = U2OS, U2OS cells, STAT3-Luc reporter, IL-10 10 ng/mL
[5] = U2OS cells, STAT3-Luc reporter, IL-10 10 ng/mL

| Structure (SMILES) | IC50 [1] | AUC [2] | Cmax [2] | IC50 [3, 4] | IC50 [3, 5] | IC50 ([3]; U2OS) |
| --- | --- | --- | --- | --- | --- | --- |
| CCONC(=O)c1cnc(NC(=O)C2CC2)cc1Nc1cccc(-c2ncc(Cl)cn2)c1OC [Example 219, 4-((3-(5-chloropyrimidin-2-yl)-2-methoxyphenyl)amino)-6-(cyclopropylcarboxamido)-N-ethoxy nicotinamide] | > 10000 nM | 16.8 µM·h | 10.3 µM | 1.09 nM | – | – |
| CCONC(=O)c1cnc(Nc2cc(C)nc(C)n2)cc1Nc1cccc(-c2ncc(C)cn2)c1OC [Example 238, 6-((2,6-dimethylpyrimidin-4-yl)amino)-N-ethoxy-4-((2-methoxy-3-(5-methylpyrimidin-2-yl)phenyl)amino)nicotinamide] | > 10000 nM | 39.9 µM·h | 15.1 µM | – | 0.168 nM | – |
| CCONC(=O)c1cnc(Nc2cc(C)nc(C)n2)cc1Nc1cc(F)cc(-c2ncccn2)c1OC [Example 215, 6-((2,6-dimethylpyrimidin-4-yl)amino)-N-ethoxy-4-((5-fluoro-2-methoxy-3-(pyrimidin-2-yl)phenyl)amino)nicotinamide] | > 10000 nM | 25.8 µM·h | 13.6 µM | 0.102 nM | – | – |
| CCONC(=O)c1cnc(Nc2cc(C)nc(C)n2)cc1Nc1cccc(-c2ncccn2)c1OC [Example 212] | > 10000 nM | 16.3 µM·h | 15 µM | – | – | 0.271 nM |
| CCONC(=O)c1cnc(Nc2cc(C)nc(C)n2)cc1Nc1ccc(C(F)(F)F)cc1N(C)S(C)(=O)=O [Example 202, 6-((2,6-dimethylpyrimidin-4-yl)amino)-N-ethoxy-4-((2-(N-methylmethanesulfonamido)-4-(trifluoromethyl)phenyl)amino)nicotinamide] | > 10000 nM | – | – | – | 0.412 nM | – |
